Here are results for 32 compounds from ChEMBL document CHEMBL1781936, “Structure-based design of potent aromatase inhibitors by high-throughput docking” (J Med Chem, 2011).

In one data set the target is T1, Aromatase (Homo sapiens, UniProt P11511).
T1 sequence (P11511 whole entry): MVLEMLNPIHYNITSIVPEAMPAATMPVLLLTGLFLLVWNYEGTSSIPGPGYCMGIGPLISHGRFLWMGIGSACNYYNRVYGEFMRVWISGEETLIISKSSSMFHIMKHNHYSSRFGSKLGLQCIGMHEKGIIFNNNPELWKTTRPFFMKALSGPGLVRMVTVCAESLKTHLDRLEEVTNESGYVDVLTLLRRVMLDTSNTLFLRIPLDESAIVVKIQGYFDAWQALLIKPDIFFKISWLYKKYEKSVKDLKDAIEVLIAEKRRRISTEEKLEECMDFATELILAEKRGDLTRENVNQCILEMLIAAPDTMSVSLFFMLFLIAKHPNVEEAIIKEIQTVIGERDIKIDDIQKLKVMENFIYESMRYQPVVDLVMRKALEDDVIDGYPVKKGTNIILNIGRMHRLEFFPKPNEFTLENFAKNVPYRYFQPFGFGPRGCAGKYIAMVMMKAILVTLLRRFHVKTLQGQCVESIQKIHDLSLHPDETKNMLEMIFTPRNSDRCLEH
The data set can be described thus: Inhibition of human recombinant aromatase using 7-methoxy-4-trifluoromethyl coumarin as substrate by fluorimetric analysis.
For `Cc1cc(C)c(S(=O)(=O)NCCCn2ccnc2)cc1C`, the IC50 (usually the concentration needed to halve the response being measured) was 172 nM. Consider `COc1cc(Cl)c(S(=O)(=O)NCCCn2ccnc2)cc1Cl`, for which the concentration for half-maximal inhibition (IC50) came to 63.7 nM.

For the compound `Cc1ccc(C(=O)NCCCn2ccnc2)cn1`, the 50% inhibitory concentration (IC50) worked out at 10600 nM. The same measure, in the same setting: the result for `Cc1ccc(C(=O)NCCCn2ccnc2)cc1[N+](=O)[O-]` reads 1000 nM. For the compound `C=CCN(c1ccc(C(=O)NCCCn2ccnc2)cc1)S(C)(=O)=O`, the IC50 worked out at 2500 nM. On the same count and under the same terms, the value for `O=S(=O)(NCCCn1ccnc1)c1ccc2c(c1)OCCO2` was 119 nM. Consider `COc1ccc2c(c1)OC1(CCN(C(=O)Cn3cncn3)CC1)CC2=O`, for which the IC50 came to 5790 nM. For the compound `O=C(CCn1ccnc1)NC[C@H]1CC[C@H](c2ncncc2-c2ccccn2)CC1`, the IC50 was determined as 3100 nM.

In the case of `O=C(Cn1ccnc1)Nc1ccccc1Oc1ccc(F)cc1`, the half-maximal inhibitory concentration (IC50) was found to be 248 nM. Take `COc1cc2c(cc1-c1cncn1CCCn1ccnc1C)OCCCO2`: the concentration for half-maximal inhibition (IC50) was 498 nM. Still for that read-out and setting: the result for `CCOc1ccc(S(=O)(=O)NCCCn2ccnc2)c2ccccc12` reads 761 nM.

For `COc1ccc(S(=O)(=O)NCCCn2ccnc2)cc1C`, the IC50 came out at 61.6 nM. On the same count and under the same terms, the value for `COc1ccc(S(=O)(=O)NCCCn2ccnc2)cc1C(C)(C)C` was 440 nM; that for `COc1ccc(S(=O)(=O)NCCCn2ccnc2)cc1F` was 100 nM. For `CC(C)(C(=O)Nc1ccccc1Oc1ccc(F)cc1)n1cncn1`, the half-maximal inhibitory concentration (IC50) turned out to be 13200 nM. In the case of `CC1(C)Oc2ccc(S(=O)(=O)NCCCn3ccnc3)cc2NC1=O`, the IC50 is 499 nM.

For the compound `O=C(C(=Cc1ccccc1)n1cncn1)c1ccc(Cl)cc1Cl` (mixture of isomers), the half-inhibitory concentration (IC50) came out at 441 nM. Same read-out and setting: the value for `COc1ccc(C(=O)OC(COc2ccccc2)Cn2ccnc2)cc1` (racemic) was 16.5 nM; that for `O=c1oc2cc(OCC(O)Cn3cncn3)ccc2c2c1CCC2` (racemic) was 21700 nM.

Regarding `COc1cc(CC(=O)N2CCOC(Cn3ccnc3)C2)cc(OC)c1OC` (racemic), the IC50 is 59.2 nM.

As for `O=C(Cn1cncn1)NC(CCc1ccccc1)c1ccc2c(c1)OCCO2` (racemic), the IC50 came to 991 nM. Still for that read-out and setting: the value for `CCc1[nH]c2ccc(C(=O)NCC(C)n3cncn3)cc2c1C` (racemic) was 10600 nM; that for `CC(CNC(=O)c1cc2c([nH]c1=O)CCCCC2)n1cncn1` (racemic) was more than 25000 nM. Still for that read-out and setting: the result for `Cc1ncc(CNc2ccc(OCC(O)Cn3ccnc3)cc2)cn1` (racemic) reads 3500 nM; that for `COc1ccc(C(C)NC(=O)c2ccccc2Cn2cncn2)cc1F` (racemic), 3100 nM. On the same count and under the same terms, the value for `COc1ccc(S(=O)(=O)N2CCCC(Cn3ccnc3)C2)cc1C(C)(C)C` (racemic) was 9.4 nM; that for `COc1ccc(S(=O)(=O)N2CCOC(Cn3ccnc3)C2)cc1` (racemic) was 78.8 nM; that for `CC(=O)c1ccc(S(=O)(=O)N2CCOC(Cn3ccnc3)C2)cc1` (racemic) was 66.5 nM. As for `O=C(Cc1ccc(F)cc1)N1CCOC(Cn2ccnc2)C1` (racemic), the IC50 was 34.5 nM. The same measure, in the same setting: the value for `O=C(Cc1ccc2c(c1)OCO2)N1CCOC(Cn2ccnc2)C1` (racemic) was 46.7 nM.

The target in another data set is T1, Aromatase. The data set can be described thus: Inhibition of human recombinant aromatase using 7-methoxy-4-trifluoromethyl coumarin as substrate at 25 uM by fluorimetric analysis.
Take `CC(C)(C)C(Cn1ccnc1)NC(=O)c1cc(N2CCOCC2)nc2ccccc12` (racemic): the “inhibition (INH)” value is on record as “Not Active”.

Tested on in a further data set: not listed separately
The experiment in a line: Solubility of the compound. Format: physicochemical.
Regarding `COc1cc2sc(NC(=O)c3ccccc3Cn3cncn3)nc2cc1Cl`, the solubility entry was “Insoluble”.
